Results published in patent US10173968B2, “Bishydrazone-based antifungal agents” (University of Kentucky Research Foundation, priority 2016, dated 2019).
Like-named read-outs stand apart in the source and are kept apart here.

What was measured:
[1] = system: all bacterial strains tested; test: Antibacterial MIC, summary over the panel; format: cell-based
Method: MIC values were determined against a variety of Gram-positive (strains A-D) and Gram-negative (E-J) bacterial and mycobacterial (K) strains using the double-dilution method, as previously published. Preliminary screening was performed using 500 μM of each compound.

VRE = test: Antibacterial MIC, double-dilution method; format: cell-based; conditions: Enterococcus, strain D, Gram-positive, read-out: MIC
Procedure, shortened: (§1)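 Compounds were first screened at 500 μM each, then MICs were read by serial twofold dilution of the compound against the bacterial strain.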

M. smegmatis MC2-155 = test: Antibacterial MIC, double-dilution method; format: cell-based; conditions: Mycolicibacterium smegmatis, MC2155, strain K, mycobacterial, read-out: MIC
Procedure, shortened: as §1

E. cloacae ATCC 13047 = test: Antibacterial MIC, double-dilution method; format: cell-based; conditions: Enterobacter cloacae, ATCC13047
Procedure, shortened: as §1

E. coli MC1061 = test: Antibacterial MIC, double-dilution method; format: cell-based; conditions: Escherichia coli, strain G, Gram-negative, read-out: MIC
Procedure, shortened: as §1

S. enterica ATCC 14028 = test: Antibacterial MIC, double-dilution method; format: cell-based; conditions: Salmonella enterica, ATCC14028, strain J, Gram-negative, read-out: MIC
Procedure, shortened: as §1

[2] = system: L. monocytogenes ATCC 19115; test: Antibacterial MIC, double-dilution method; format: cell-based; conditions: Listeria monocytogenes, ATCC19115, strain B, Gram-positive, read-out: MIC
Procedure, shortened: as §1

P. aeruginosa ATCC 27853 = test: Antibacterial MIC, double-dilution method; format: cell-based; conditions: Pseudomonas aeruginosa, ATCC27853
Procedure, shortened: as §1

MRSA = test: Antibacterial MIC, double-dilution method; format: cell-based; conditions: Staphylococcus aureus, strain C, Gram-positive, read-out: MIC
Procedure, shortened: as §1

B. subtilis 168 = test: Antibacterial MIC, double-dilution method; format: cell-based; conditions: Bacillus subtilis, strain A, Gram-positive
Procedure, shortened: as §1

K. pneumoniae ATCC 27736 = test: Antibacterial MIC, double-dilution method; format: cell-based; conditions: Klebsiella pneumoniae, ATCC27736
Procedure, shortened: as §1

A. baumannii ATCC 19606 = test: Antibacterial MIC, double-dilution method; format: cell-based; conditions: Acinetobacter baumannii, ATCC19606
Procedure, shortened: as §1

[3] = Mammalian cell cytotoxicity, resazurin; format: cell-based; conditions: human
Method: Another important aspect to consider during the development of antimicrobial agents is their potential toxicity towards mammalian cells. Having established the potent antimicrobial activities of the bis(N-amidino)hydrazones and N-amidino-N′-aryl-bishydrazones against bacteria and fungi, the toxicity profile of these compounds was determined against two mammalian cell lines (A549 and BEAS-2B; FIGS. 4A-B). […]. Cytotoxicity assays were performed as previously described. The human lung carcinoma epithelial cells A549 and the normal human bronchial epithelial cells BEAS-2B were grown in F12-K and DMEM medium containing 10% fetal bovine serum (FBS) and 1% antibiotics, respectively. The confluent cells were trypsinized with 0.05%-trypsin-0.53 mM EDTA, centrifuged (1,200 rpm) and resuspended in fresh medium (F12-K or DMEM). The cells were seeded into 96-well microtiter plates at a density of 3,000 cells/well and were grown overnight. […] Triton X-100® (0.5%, v/v) gave complete loss of cell viability and was used as the positive control. The percent cell survival was calculated as: (test value/control value)×100, where control value represents cells+resazurin−drug, and test value represents cells+resazurin+drug.

[4] = system: C. albicans strains (panel of seven); test: Antifungal MIC, summary over the panel; format: cell-based, Candida albicans; conditions: against all fungal strains tested
Procedure, shortened: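 Performed by CLSI M27-A3 broth microdilution for yeast susceptibility, with minor modifications. MIC was read visually as the lowest concentration giving complete growth inhibition relative to the growth control.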

C. albicans ATCC 64124 = test: Antifungal MIC, CLSI M27-A3 microbroth dilution; format: cell-based, Candida albicans; conditions: Candida albicans, ATCC64124, C. albicans ATCC 64124, resistant to FLC, ITC, and VOR, read-out: MIC
Method: (§2) In vitro MIC testing was performed according to the CLSI M27-A3 standard microbroth dilution methodology for the susceptibility testing of yeasts with minor modifications.

C. albicans ATCC 2876 = test: Antifungal MIC, CLSI M27-A3 microbroth dilution; format: cell-based, Candida albicans; conditions: Candida albicans, ATCC2876, C. albicans ATCC 2876, susceptible to FLC, ITC, and VOR, read-out: MIC
Method: as §2

C. albicans ATCC 1237 = test: Antifungal MIC, CLSI M27-A3 microbroth dilution; format: cell-based, Candida albicans; conditions: Candida albicans, ATCC1237, C. albicans ATCC 1237, resistant to FLC, ITC, and VOR, read-out: MIC
Method: as §2

C. albicans ATCC 2310 = test: Antifungal MIC, CLSI M27-A3 microbroth dilution; format: cell-based, Candida albicans; conditions: Candida albicans, ATCC2310, C. albicans ATCC 2310, susceptible to FLC, ITC, and VOR, read-out: MIC
Method: as §2

C. albicans ATCC 1003 = test: Antifungal MIC, CLSI M27-A3 microbroth dilution; format: cell-based, Candida albicans; conditions: Candida albicans, ATCC1003, read-out: MIC
Method: as §2

C. albicans ATCC 10231 = test: Antifungal MIC, CLSI M27-A3 microbroth dilution; format: cell-based, Candida albicans; conditions: Candida albicans, ATCC10231, C. albicans ATCC 10231, resistant to FLC, ITC, and VOR, read-out: MIC
Method: as §2

C. albicans ATCC 90819 = test: Antifungal MIC, CLSI M27-A3 microbroth dilution; format: cell-based, Candida albicans; conditions: Candida albicans, ATCC90819, C. albicans ATCC 90819, resistant to FLC, ITC, and VOR, read-out: MIC
Method: as §2

[5] = read-out: MIC, span over all bacterial strains tested
[6] = strain F, Gram-negative, converted from μM, read-out: MIC
[7] = strain F, Gram-negative, range 0.5 to 500 μM, read-out: MIC
[8] = strain I, Gram-negative, converted from μM, read-out: MIC
[9] = strain I, Gram-negative, range 0.5 to 500 μM, read-out: MIC
[10] = strain H, Gram-negative, converted from μM, read-out: MIC
[11] = strain H, Gram-negative, range 0.5 to 500 μM, read-out: MIC
[12] = strain E, Gram-negative, converted from μM, read-out: MIC
[13] = strain E, Gram-negative, range 0.5 to 500 μM, read-out: MIC

Row | SMILES | MIC [1, 5] [µM] | MIC (VRE; converted from μM) [µg/mL] | MIC (VRE; range 0.5 to 500 μM) [µM] | MIC (M. smegmatis MC2-155; converted from μM) [µg/mL] | MIC (M. smegmatis MC2-155; range 0.5 to 500 μM) [µM] | MIC (E. cloacae ATCC 13047; [6]) [µg/mL] | MIC (E. cloacae ATCC 13047; [7]) [µM] | MIC (E. coli MC1061; converted from μM) [µg/mL] | MIC (E. coli MC1061; range 0.5 to 500 μM) [µM] | MIC (S. enterica ATCC 14028; converted from μM) [µg/mL] | MIC (S. enterica ATCC 14028; range 0.5 to 500 μM) [µM] | MIC ([2]; converted from μM) [µg/mL] | MIC ([2]; range 0.5 to 500 μM) [µM] | MIC (P. aeruginosa ATCC 27853; [9]) [µM] | MIC (MRSA; converted from μM) [µg/mL] | MIC (MRSA; range 0.5 to 500 μM) [µM] | MIC (B. subtilis 168; converted from μM) [µg/mL] | MIC (B. subtilis 168; range 0.5 to 500 μM) [µM] | MIC (K. pneumoniae ATCC 27736; [11]) [µM] | MIC (A. baumannii ATCC 19606; [13]) [µM] | other results
1 | CC1COc2c(N3CCN(C)CC3)c(F)cc3c(=O)c(C(=O)O)cn1c23 (stereo not shown) [OFX, ofloxacin, reference compound] | 0.5 to 31.3 | 2.8 | 7.8 | 5.6 | 15.6 | ≤ 0.2 | ≤ 0.5 | 1.4 to 2.8 | 3.9 to 7.8 | 5.6 to 11.3 | 15.6 to 31.3 | 0.4 | 1 | 3.9 | 0.4 | 1 | ≤ 0.2 | ≤ 0.5 | 15.6 to 31.3 | ≤ 0.5 | MIC (P. aeruginosa ATCC 27853; [8]): 1.4 µg/mL; MIC (K. pneumoniae ATCC 27736; [10]): 5.6 to 11.3 µg/mL; MIC (A. baumannii ATCC 19606; [12]): ≤ 0.2 µg/mL
2 | Cl.N=C(N)N/N=C/c1ccc(-c2ccc(/C=N/Nc3ccc(F)cc3)cc2)cc1 [Compound 7Ac, (E)-2-((4′-((E)-(2-(4-Fluorophenyl)hydrazono)methyl)-[1,1′-biphenyl]-4-yl)methylene)hydrazine-1-carboximidamide monohydrochloride] |  |  |  |  |  |  |  |  |  |  |  |  |  |  |  |  |  |  |  |  | MIC ([1]; read-out: antibacterial MIC values): 0.4 to 3.3 µg/mL; IC50 at 24 h ([3]; BEAS-2B): 7.8 to 15.6 µg/mL; IC50 at 24 h ([3]; A549, 24 h): 7.8 to 15.6 µg/mL; melting point: > 380 °C
3 | CC1(C)S[C@@H]2[C@H](NC(=O)[C@H](N)c3ccccc3)C(=O)N2[C@H]1C(=O)O [AMP, ampicillin, reference compound] | ≥ 250 | 92.8 | 250 | > 92.8 | > 250 |  | > 250 | > 92.8 | > 250 | 92.8 | 250 | 92.8 | 250 | > 250 | 92.8 | 250 | > 92.8 | > 250 | > 250 | > 250 | MIC (E. cloacae ATCC 13047): > 92.8 µg/mL; MIC (P. aeruginosa ATCC 27853): > 92.8 µg/mL; MIC (K. pneumoniae ATCC 27736): > 92.8 µg/mL; MIC (A. baumannii ATCC 19606): > 92.8 µg/mL
4 | Cl.N=C(N)N/N=C/c1ccc(-c2ccc(/C=N/Nc3ccccc3Br)cc2)cc1 [Compound 7Ab, (E)-2-((4′-((E and Z)-(2-(2-Bromophenyl)hydrazono)methyl)-[1,1′-biphenyl]-4-yl)methylene)hydrazine-1-carboximidamide monohydrochloride] |  | 0.9 | 2 | 1.8 | 3.9 | > 235 | > 500 | > 235 | > 500 | > 235 | > 500 | 0.9 | 2 | > 500 | 0.9 | 2 | > 235 | > 500 | > 500 | > 500 | antifungal activity in words [4]: excellent antifungal activities; MIC (C. albicans ATCC 64124; converted from μg/mL): 8.3 µM; MIC (C. albicans ATCC 64124): 3.9 µg/mL; MIC (C. albicans ATCC 2876; converted from μg/mL): 8.3 µM; MIC (C. albicans ATCC 2876): 3.9 µg/mL; MIC (C. albicans ATCC 1237; converted from μg/mL): 8.3 µM; MIC (C. albicans ATCC 1237): 3.9 µg/mL; MIC (C. albicans ATCC 2310; converted from μg/mL): 8.3 µM; MIC (C. albicans ATCC 2310): 3.9 µg/mL; MIC (C. albicans ATCC 1003; C. albicans ATCC 1003, converted from μg/mL): 4.1 µM; MIC (C. albicans ATCC 1003): 2 µg/mL; MIC (C. albicans ATCC 10231; converted from μg/mL): 4.1 µM; MIC (C. albicans ATCC 10231): 2 µg/mL; MIC (C. albicans ATCC 90819; converted from μg/mL): 8.3 µM; MIC (C. albicans ATCC 90819): 3.9 µg/mL; melting point: > 380 °C; MIC (P. aeruginosa ATCC 27853; [8]): > 235 µg/mL; MIC (K. pneumoniae ATCC 27736; [10]): > 235 µg/mL; MIC (A. baumannii ATCC 19606; [12]): > 235 µg/mL
